Data from patent US11034751B1, “Methods and compositions for treating cancer using serotonin receptor inhibitors” (Flagship Pioneering Innovations V, Inc., priority 2018, dated 2021).

Test system: macrophages
Test: IL8 secretion by macrophages incubated with serotonin receptor agonists (bead-based immunoassay)
Format: cell-based
Conditions: human monocyte-derived macrophages (M-CSF)
Procedure: CD14+ monocytes were isolated from human PBMCs using negative magnetic bead selection (Stemcell Technologies) on day 0. Cells were cultured with M-CSF to differentiate monocytes to macrophages. On day 6, cells were treated with LP44 (high affinity 5-HT7 agonist), BW 723C86 hydrochloride (5-HT2B agonist), MK 212 hydrochloride (5-HT2C agonist) (Sigma-Aldrich), at concentrations 1 μM and 10 μM overnight. Supernatant was collected and bead-based immunoassays (Biolegend) were performed to detect changes in cytokine secretion.
Across multiple human donors, secretion of the inflammatory cytokine, IL8, by macrophages was decreased after addition of each of the HTR2B, HTR2C, and HTR7 agonists, as show in Table 18 below.

Row | SMILES | Fold change of IL-8 (Normalized to Macs + LPS with no compound treatment) (1 μM overnight) | Fold change of IL-8 (Normalized to Macs + LPS with no compound treatment) (10 μM overnight)
1 | Clc1cncc(N2CCNCC2)n1 [MK212] | 0.502 | 0.484
2 | CSc1ccccc1N1CCN(CCCCCC(=O)NC2CCCc3ccccc32)CC1 (stereo not drawn) [LP44] | 0.340 | 0.427
3 | CC(N)Cc1c[nH]c2ccc(OCc3cccs3)cc12.Cl (stereo not drawn) [BW723086] | 0.670 | 0.508
